Reference: patent US20090018620A1, “METHOD FOR RESTORING AN E[…]” ([…], priority 2007, published 2009)
“Also recorded” adds a separate entry of the source.

How the values were obtained:
LSt neurons [1] = test: Muscimol injection into LSt neuron area 3.4 s after LSt neuron microstimulation, during ongoing rhythmic BS EMG activity (FIG. 4); assay type: in vivo, rat
Experimental: (§1) All procedures were in accordance with the European Communities Council Directives 86/609/EEC on the use of laboratory animals. Male adult sexually naïve Wistar rats (Janvier, Le Genest-St-Isle, France) of 275-325 grams, housed for at least 4 days in our animal facility before experimentation, were anesthetized with […] intraperitoneal urethane while body temperature was maintained at 37° C. with a homeothermic blanket. […] Custom-made bipolar steel wire electrodes (AS631, CoonerWire, CA, USA) were implanted into the exposed dorsal part of the right bulbospongiosus (BS) muscle. After suprapubic midline abdominal incision, a 1.1 mm diameter mineral oil-filled catheter was inserted into the lumen of the right seminal vesicle (SV) via its apex or the right vas deferens (VD) was cut and a 0.61 mm diameter catheter filled with isotonic salt solution inserted into the prostatic portion of the VD lumen. Then, the spine was exposed dorsally and fixed with a stereotaxic frame. Laminectomy was performed between vertebrae L1-T13 to expose […] spinal level and the dura was carefully removed. To improve intraspinal access, we incubated the spinal cord for 20 minutes with 3 units/μl collagenase type VII from Clostridium histolyticum (Sigma-Aldrich Chimie, St.Quentin Fallavier, France). To target T12 to L6 spinal levels in FIG. 2C, we performed 2-3 laminectomies on the same animal. Acute spinalization was performed through a complete spinal transection between T8 and T9 spinal levels one hour before microstimulation started. We performed bilateral sectioning of i) the hypogastric and pelvic nerves close to the major pelvic ganglion or iii) the dorsal nerves of the penis at the penile crus. A single experiment lasted 2 to 4 hours.
(§2) Monopolar spinal microstimulation was performed with a ‘Formvar’-coated nichrome wire of 50 μm diameter (AM-Systems Inc. WA, USA). Typically, the electrode was positioned on the dorsal surface at L4 spinal level, adjacent to the right of the dorsal spinal artery and lowered vertically with a hydraulic microdrive (Trent-Wells, Coulterville, Calif., USA) to ˜1600 μm depth in correspondence with the stereotaxic coordinates for laminae VII and X (S2), taking as electrode depth the read-out of the microdrive. A reference electrode was placed in the vicinity of the tail. Electrical stimuli were delivered using a pulse generator (model-2100, AM-Systems Inc. WA, USA). Biphasic rectangular current pulses of 0.5 ms duration applied in short trains of 60 to 100 pulses at 200 Hz for a total duration of 300 to 500 ms were applied. This stimulus was optimal without causing temporal overlap between stimulus and the SV/VD/BS muscle responses, according to preliminary experiments. […]

LSt neurons [2] = test: Muscimol injection into LSt neuron area at L4 immediately before intraspinal microstimulation, BS EMG recording (FIG. 3); assay type: in vivo, rat
Experimental: as §1, §2

[3] = ~20 minutes after muscimol injection

## NCc1cc(=O)[nH]o1 [muscimol]
LSt neurons [1]; average of 5 animals, injection total duration 400 ms
  Time to full suppressive effect on BS EMG activity after muscimol injection: ≤ 160 ± 120 ms
LSt neurons [1]; muscimol applied 3.4 s after end of LSt neuron microstimulation, mean BS rEMG 0.3-15.3 s after injection, n=5, P<10^−5
  Rhythmic pattern of BS EMG activity, of the control response: 2±2%
LSt neurons [1]; ~200 nl of 50 μM muscimol injected 3.4 s after microstimulation, LSt neuron area adjacent to electrode tip
  Effect on ongoing BS EMG activity (example experiment): completely interrupted the BS EMG activity; also recorded: rapidly turned off BS EMG activity
LSt neurons [1]; [3]
  BS EMG response to microstimulation after recovery period: partial response recovery
LSt neurons [2]; anesthetized rats, 50 μM muscimol injected at L4 near electrode tip, microstimulation immediately after, n=5, P<10^−5
  BS EMG activity following microstimulation, of the control response: 6±5%
LSt neurons [2]; anesthetized rats, n=5, P=0.07
  BS EMG activity during the time of microstimulation (unrelated to the ejaculation response) in the presence of muscimol as compared to controls: 58±25%
LSt neurons [2]; ~200 nl of 50 μM muscimol in the vicinity of the electrode tip, immediately before microstimulation
  Effect on BS EMG activity evoked by second identical microstimulation (example experiment): abolished BS EMG activity
LSt neurons [2]; [3]
  BS EMG response to third microstimulation (recovery): partial response recovery
